Experimental data published in paper PMC3914206.

How the values were obtained:
Type in all cases: binding
[1] = target: T1, panel of 442 kinases (Homo sapiens, UniProt Q9BZL6); conditions: Compound Concentration 10 µM
T1 construct: purchased KINOMEscan
T1 sequence (Q9BZL6 1-878): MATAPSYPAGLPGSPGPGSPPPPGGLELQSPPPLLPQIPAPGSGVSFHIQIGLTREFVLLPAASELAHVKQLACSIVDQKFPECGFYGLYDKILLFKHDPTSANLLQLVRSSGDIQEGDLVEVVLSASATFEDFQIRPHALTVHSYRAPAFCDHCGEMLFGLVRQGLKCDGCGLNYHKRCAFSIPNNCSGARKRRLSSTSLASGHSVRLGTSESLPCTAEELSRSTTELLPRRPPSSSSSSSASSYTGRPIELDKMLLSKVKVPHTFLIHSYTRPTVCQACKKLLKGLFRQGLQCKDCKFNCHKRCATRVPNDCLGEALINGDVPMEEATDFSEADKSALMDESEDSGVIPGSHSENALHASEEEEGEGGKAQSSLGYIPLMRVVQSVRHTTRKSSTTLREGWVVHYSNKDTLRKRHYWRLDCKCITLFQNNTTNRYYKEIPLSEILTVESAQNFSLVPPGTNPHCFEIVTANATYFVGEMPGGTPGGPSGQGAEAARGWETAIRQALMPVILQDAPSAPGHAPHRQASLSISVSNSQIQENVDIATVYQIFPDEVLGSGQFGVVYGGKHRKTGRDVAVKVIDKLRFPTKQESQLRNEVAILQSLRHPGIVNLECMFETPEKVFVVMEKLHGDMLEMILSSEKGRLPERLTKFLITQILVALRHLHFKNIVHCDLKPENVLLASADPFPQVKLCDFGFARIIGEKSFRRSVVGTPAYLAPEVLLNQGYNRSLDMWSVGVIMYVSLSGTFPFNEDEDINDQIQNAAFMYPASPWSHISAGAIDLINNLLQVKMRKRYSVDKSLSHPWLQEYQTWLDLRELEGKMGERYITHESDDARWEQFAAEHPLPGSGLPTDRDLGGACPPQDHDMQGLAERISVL
Excerpt: (§1) We assessed the selectivity of members of this scaffold using the KINOMEscan methodology across a near comprehensive panel of 442 kinases [[18,27]].

[2] = target: T2, panel of 442 kinases (Homo sapiens, UniProt Q9UIK4); conditions: Compound Concentration 10 µM
T2 construct: purchased KINOMEscan
Excerpt: as §1

[3] = target: T3, panel of 442 kinases (Homo sapiens, UniProt Q86UE8); conditions: kinase TLK2; compound concentration 10 µM
T3 construct: purchased KINOMEscan
Excerpt: as §1

T3 sequence (Q86UE8 whole entry): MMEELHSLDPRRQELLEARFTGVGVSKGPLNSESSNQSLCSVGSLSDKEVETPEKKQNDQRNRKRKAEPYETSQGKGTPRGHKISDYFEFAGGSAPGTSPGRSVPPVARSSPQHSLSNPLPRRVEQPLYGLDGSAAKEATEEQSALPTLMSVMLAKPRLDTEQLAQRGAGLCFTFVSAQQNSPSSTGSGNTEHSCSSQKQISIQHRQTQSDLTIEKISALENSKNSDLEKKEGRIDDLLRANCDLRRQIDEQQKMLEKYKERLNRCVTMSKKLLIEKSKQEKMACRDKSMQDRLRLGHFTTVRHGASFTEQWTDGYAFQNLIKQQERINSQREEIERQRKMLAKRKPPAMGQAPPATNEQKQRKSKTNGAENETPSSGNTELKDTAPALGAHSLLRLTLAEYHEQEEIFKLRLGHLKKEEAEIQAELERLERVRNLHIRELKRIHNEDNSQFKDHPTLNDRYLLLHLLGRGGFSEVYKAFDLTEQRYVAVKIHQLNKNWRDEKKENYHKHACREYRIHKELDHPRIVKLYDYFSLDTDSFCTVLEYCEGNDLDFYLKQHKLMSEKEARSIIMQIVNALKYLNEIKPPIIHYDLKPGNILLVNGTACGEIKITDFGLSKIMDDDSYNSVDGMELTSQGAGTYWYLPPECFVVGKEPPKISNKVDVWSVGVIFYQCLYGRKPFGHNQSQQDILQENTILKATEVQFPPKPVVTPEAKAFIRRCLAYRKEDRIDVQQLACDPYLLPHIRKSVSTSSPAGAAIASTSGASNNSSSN
T2 sequence (Q9UIK4 whole entry): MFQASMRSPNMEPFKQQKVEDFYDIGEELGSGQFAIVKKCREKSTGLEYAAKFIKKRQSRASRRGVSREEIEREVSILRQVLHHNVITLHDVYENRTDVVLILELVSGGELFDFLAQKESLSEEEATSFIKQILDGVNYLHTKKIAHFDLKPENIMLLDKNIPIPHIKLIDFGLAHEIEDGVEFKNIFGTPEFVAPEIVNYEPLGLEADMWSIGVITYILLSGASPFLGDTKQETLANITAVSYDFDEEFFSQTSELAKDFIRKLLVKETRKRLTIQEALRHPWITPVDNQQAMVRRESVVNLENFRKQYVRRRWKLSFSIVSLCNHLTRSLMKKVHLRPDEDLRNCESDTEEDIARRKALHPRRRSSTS

Row | SMILES | KINOMEscan: PRKD2 [1] | KINOMEscan: DAPK2 [2] | % Ctrl, TLK2 [3] [% Ctrl]
1 | COc1cc(C(=O)N2CCC(N3CCN(C)CC3)CC2)ccc1Nc1ncc2c(n1)N1CCc3cccc(c31)C(=O)N2C [Compound 24] | 30 | 22 | 98
2 | CCOc1cc(C(=O)N2CCC(N3CCN(C)CC3)CC2)ccc1Nc1ncc2c(n1)N(C1CCCC1)c1ccccc1C(=O)N2C [Compound 26] | 100 | 99 | 100
3 | COc1cc(C(=O)N2CCC(N3CCN(C)CC3)CC2)ccc1Nc1ncc2c(n1)N(C1CCCC1)c1ccccc1C(=O)N2C [Compound 25, 11-cyclopentyl-2-((2-methoxy-4-(4-(4-methylpiperazin-1-yl)piperidine-1-carbonyl)phenyl)amino)-5-methyl-5H-benzo[e]pyrimido[5,4-b][1,4]diazepin-6(11H)-one] | 87 | 90 | 94
4 | COc1cc(C(=O)N2CCC(N3CCN(C)CC3)CC2)ccc1Nc1ncc2c(n1)N(C)c1ccccc1C(=O)N2C [15 (LRRK2-IN-1)] | 59 | 67 | 99
